This note sets out measurements from publication PMC10600239, “Selective MCL-1 inhibitor ABBV-467 is efficacious in tumor models but is associated with cardiac troponin increases in patients” (Communications Medicine, 2023).

Each structure is given as a SMILES string.

The data set concerns AMO-1 xenografts. Briefly: AMO-1 xenograft efficacy (tumor volume, body weight). To be noted: mice, 25 mg/kg on a Q7D × 2 schedule. The format is in vivo, mouse. The procedure: All animal studies were conducted in accordance with the guidelines approved by the Institutional Animal Care and Use Committees of AbbVie. The research protocol was approved by In Vivo Pharmacology at AbbVie prior to study initiation but was not publicly registered or disclosed. Female C.B-17 SCID-beige mice (AMO-1, OPM-2, NCI-H929, and OCI-AML2 xenografts) and female NSG mice (MV4-11-Red.Fluc systemic) were purchased from Charles River Laboratories (Wilmington, MA). Animals were housed in a light cycle-controlled room with HEPA filtration at 22 °C. Animals had nesting and climbing cage topper as the primary environmental enrichment. Animals were inoculated subcutaneously in the right flank with 5 × 10^6 (AMO-1, OPM-2, NCI-H929, and OCI-AML2) or intravenous (IV) with 5 × 10^6 (MV4-11-Red.Fluc). The inoculation volume (0.2 mL) comprised a 50:50 mixture of cells in growth media and Matrigel (BD Biosciences) for subcutaneous injections and 100% phosphate-buffered saline for IV administration. All cell lines used in this publication were authenticated using IDEXX for STR profiling as well as their IMPACT and human IMPACT panels for pathogen screening. Electronic calipers were used to measure the length and width of each tumor 2 to 3 times per week. Tumor volume was estimated by applying the following equation: volume = length × width^2/2. All groups remained blinded during measurements and dosing; only veterinary staff were aware of group identity. When tumors reached approximately 200 mm^3, mice were randomized by match and distributed into treatment and control groups. All xenograft trials were conducted using 5 to 10 mice per group, and all mice were ear tagged and monitored individually throughout the studies. […] Tumor burden in the systemic MV4-11-Red.Fluc experiment was measured using an IVIS® spectrum from PerkinElmer by taking the total photon flux of the entire dorsal side of an individual mouse. […] A background control mouse that was tumor naive but received D-Luciferin was placed in the upper left corner of each image. The total flux from this animal was subtracted from the total flux of each animal present in the image.
For in vivo studies, maximal tumor growth inhibition (TGI) was calculated as the greatest treatment response using the following equation: Maximal TGI = (1 − mean tumor volume of the treated group/mean tumor volume of the vehicle control group) × 100. The tumor growth delay (TGD) percentage was determined as the percentage increase of the median time period for the treatment group to reach an arbitrary tumor volume of 1000 mm^3 relative to the vehicle control group. […] A power analysis was conducted using historical data to determine the number of animals required to yield significance of 0.05 at a 30% difference. […] Data from experiments in vivo were analyzed using the student’s t-test for TGI values and the Mann–Whitney U test for TGD using Excel and GraphPad Prism. Fisher’s exact test was used to probe significance of differences in response frequency.

On to `Cc1c(Cl)c2c(Cl)c(C)c1-c1c(-c3ccc(F)cc3)sc3ncnc(c13)O[C@@H](C(=O)O)Cc1cc(ccc1OCc1ccnc(-c3ccc(OC[C@H]4COCCO4)cc3)n1)OC[C@@H](CN1CCN(C)CC1)O2` [ABBV-467], for which the tolerability result is “not well-tolerated”.
